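Following 48 hours of exposure in 96-well plates, responses at five concentrations were used to interpolate endpoints linearly. GI50 is the concentration that inhibits growth by half.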 Activity calls are given as the source filed them. Cut-off read from the data, not from the text of the source: active = GI50 up to about 1.1 µM and inactive = higher.
Tests used:
Assay in all cases: NCI-60 cell line screen, 48 h
786-0 = system: 786-0
HCC 2998 = system: HCC 2998
HCT-116 = system: HCT-116
HCT-15 = system: HCT-15
HOP-92 = system: HOP-92
HT-29 = system: HT-29
LOX IMVI = system: LOX IMVI
MOLT-4 = system: MOLT-4
Malme-3M = system: Malme-3M
NCI-H23 = system: NCI-H23
NCI/ADR-RES = system: NCI/ADR-RES
SF-295 = system: SF-295
SK-MEL-28 = system: SK-MEL-28
SK-MEL-2 = system: SK-MEL-2
SNB-75 = system: SNB-75
T47D = system: T47D
U-251 = system: U-251
UACC-62 = system: UACC-62
SF-268 = system: SF-268
HOP-62 = system: HOP-62

SMILES	GI50 (786-0)	GI50 (HCC 2998)	GI50 (HCT-116)	GI50 (HCT-15) [µM]	GI50 (HOP-92)	GI50 (HT-29)	GI50 (LOX IMVI)	GI50 (MOLT-4)	GI50 (Malme-3M)	GI50 (NCI-H23)	GI50 (NCI/ADR-RES)	GI50 (SF-295)	GI50 (SK-MEL-28)	GI50 (SK-MEL-2)	GI50 (SNB-75)	GI50 (T47D)	GI50 (U-251)	GI50 (UACC-62)	GI50 (SF-268)	GI50 (HOP-62)
CC(NC1=NCCO1)c1ccsc1 (centres undefined)	18.8 µM (inactive)	69.3 µM (inactive)	16.4 µM (inactive)	40.7	23.6 µM (inactive)	15.2 µM (inactive)	20.3 µM (inactive)	22.7 µM (inactive)	21 µM (inactive)	64.4 µM (inactive)	> 100 µM (inactive)	17.8 µM (inactive)	19 µM (inactive)	21.9 µM (inactive)	13.2 µM (inactive)	33.3 µM (inactive)	18.2 µM (inactive)	17.6 µM (inactive)	–	–
Cn1c2c(c3ccccc31)CC(=S)N1CCCC(CC2O)C1 (centres undefined)	> 100 µM (inactive)	> 100 µM (inactive)	> 100 µM (inactive)	> 100	> 100 µM (inactive)	> 100 µM (inactive)	> 100 µM (inactive)	–	> 100 µM (inactive)	> 100 µM (inactive)	> 100 µM (inactive)	> 100 µM (inactive)	> 100 µM (inactive)	> 100 µM (inactive)	> 100 µM (inactive)	> 100 µM (inactive)	> 100 µM (inactive)	91.2 µM (inactive)	> 100 µM (inactive)	–
O=c1[nH]/c(=C/c2ccc(OCc3ccccc3)cn2)c(=O)[nH]/c1=C/c1ccc(F)cc1	0.447 µM (active)	1.42 µM (inactive)	0.461 µM (active)	0.157	0.586 µM (active)	0.434 µM (active)	1.62 µM (inactive)	0.4 µM (active)	0.759 µM (active)	2.89 µM (inactive)	0.614 µM (active)	0.33 µM (active)	–	7.35 µM (inactive)	0.409 µM (active)	1.42 µM (inactive)	1.05 µM (active)	0.938 µM (active)	1.73 µM (inactive)	0.239 µM (active)
COc1cc(OC)c2nccc(NCCCN(C)C)c2c1[N+](=O)[O-]	> 100 µM (inactive)	> 100 µM (inactive)	62.4 µM (inactive)	> 100	61.1 µM (inactive)	35 µM (inactive)	> 100 µM (inactive)	> 100 µM (inactive)	55.1 µM (inactive)	> 100 µM (inactive)	> 100 µM (inactive)	> 100 µM (inactive)	> 100 µM (inactive)	> 100 µM (inactive)	30.9 µM (inactive)	> 100 µM (inactive)	> 100 µM (inactive)	> 100 µM (inactive)	> 100 µM (inactive)	> 100 µM (inactive)
O=C(O)[C@H]1NC[C@@H]2ON=C(Br)[C@@H]21	> 100 µM (inactive)	> 100 µM (inactive)	> 100 µM (inactive)	> 100	> 100 µM (inactive)	> 100 µM (inactive)	> 100 µM (inactive)	> 100 µM (inactive)	> 100 µM (inactive)	> 100 µM (inactive)	> 100 µM (inactive)	> 100 µM (inactive)	> 100 µM (inactive)	> 100 µM (inactive)	> 100 µM (inactive)	> 100 µM (inactive)	> 100 µM (inactive)	> 100 µM (inactive)	> 100 µM (inactive)	> 100 µM (inactive)
CN(C)Cc1cc(C(=O)/C=C/c2c(F)cccc2Cl)cc(CN(C)C)c1O	5.61 µM (inactive)	13.1 µM (inactive)	4.48 µM (inactive)	4.34	7.52 µM (inactive)	10.9 µM (inactive)	4.83 µM (inactive)	11.1 µM (inactive)	11.8 µM (inactive)	14.9 µM (inactive)	17 µM (inactive)	11.6 µM (inactive)	14.5 µM (inactive)	15.6 µM (inactive)	8.53 µM (inactive)	14.9 µM (inactive)	10.8 µM (inactive)	12.3 µM (inactive)	10.1 µM (inactive)	12 µM (inactive)
C=C(C)[C@H]1CC[C@@]23O[C@@H]2[C@@H](C[C@@]2(C)CC(=O)[C@H](CC(=O)C1)O2)OC(=O)[C@@]12CC[C@H](C(=C)C)CC(=O)C[C@H]4O[C@](C)(CC4=O)C[C@@H](OC3=O)[C@@H]1O2 [SINGARDIN]	> 100 µM (inactive)	> 100 µM (inactive)	> 100 µM (inactive)	> 100	> 100 µM (inactive)	> 100 µM (inactive)	> 100 µM (inactive)	> 100 µM (inactive)	> 100 µM (inactive)	> 100 µM (inactive)	> 100 µM (inactive)	> 100 µM (inactive)	> 100 µM (inactive)	> 100 µM (inactive)	> 100 µM (inactive)	> 100 µM (inactive)	> 100 µM (inactive)	> 100 µM (inactive)	–	> 100 µM (inactive)
